Test results as given in the supplement of paper PMC10307832.

The cell lines below were run with CC1(C)CNc2cc(NC(=O)c3cccnc3NCc3ccncc3)ccc21 [Motesanib] + CCNC(=O)c1noc(-c2cc(C(C)C)c(O)cc2O)c1-c1ccc(CN2CCOCC2)cc1 [Luminespib] (partner 0.01 µM) (assay: relative viability (nuclei count vs DMSO), 5 days (fraction); higher = more cells survive). Details: first compound 0.1 µM.
How it was run: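 After 5 days of treatment, lung cancer cells in 1536-well plates were fixed and stained in a single step (final 0.05% Triton X-100, 1% formaldehyde, 1 ug/ml Hoechst) and their nuclei counted on 4× images. Treatment had been applied by pin tool the day after seeding as one drug alone or as a fixed anchor-drug dose with five library-drug doses (not always all listed) in √10 steps. Relative viability is the nuclei count of treated wells divided by that of vehicle wells, and values are medians of duplicate plates.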

First: NCI-H1437
Second: NCI-H1755
The relative viability of the first is higher: 1.08 for the first, 0.353 for the second.

Compared with NCI-H2023, HCC-15 is lower in relative viability: 0.855 for the first, 0.314 for the second.

Going from NCI-H1793 to PC-14, the relative viability falls from 0.199 to 0.126.

Compared with EKVX, LC-2-ad is higher in relative viability: 0.833 for the first, 0.959 for the second.

Going from NCI-H1944 to NCI-H1975, the relative viability falls from 0.749 to 0.224.

Compared with RERF-LC-KJ, ABC-1 is lower in relative viability: 1.12 for the first, 0.556 for the second.

Same assay, conditions: first compound 0.3162 µM

Compared with LCLC-97TM1, NCI-H2009 is higher in relative viability: 0.813 for the first, 1.07 for the second.

Going from A-427 to NCI-H441, the relative viability falls from 1.24 to 0.302.

Compared with NCI-H661, NCI-H1734 is lower in relative viability: 0.952 for the first, 0.199 for the second.

Going from NCI-H460 to NCI-H2347, the relative viability rises from 0.0458 to 0.48.

Going from SK-LU-1 to NCI-H1395, the relative viability rises from 0.204 to 0.876.

Compared with 201T, NCI-H1915 is lower in relative viability: 1.01 for the first, 0.826 for the second.

Compared with HCC-827, LXF-289 is lower in relative viability: 0.75 for the first, 0.724 for the second.

Compared with NCI-H23, NCI-H647 is lower in relative viability: 0.205 for the first, 0.165 for the second.

First: CAL-12T
Second: NCI-H1651
The relative viability of the first is lower: 0.567 for the first, 0.921 for the second.

Compared with EPLC-272H, NCI-H2228 is lower in relative viability: 0.233 for the first, 0.142 for the second.

Compared with NCI-H1355, NCI-H3122 is lower in relative viability: 0.77 for the first, 0.0799 for the second.

Going from NCI-H1437 to NCI-H1755, the relative viability falls from 1.1 to 0.445.

First: NCI-H2023
Second: HCC-15
The relative viability of the first is higher: 0.811 for the first, 0.278 for the second.

Going from NCI-H1793 to PC-14, the relative viability falls from 0.463 to 0.218.

First: EKVX
Second: LC-2-ad
The relative viability of the first is lower: 0.877 for the first, 1.07 for the second.

Going from NCI-H1944 to NCI-H1975, the relative viability falls from 0.772 to 0.261.

First: RERF-LC-KJ
Second: ABC-1
The relative viability of the first is higher: 1.38 for the first, 0.716 for the second.

Same assay, conditions: first compound 1 µM

Going from LCLC-97TM1 to NCI-H2009, the relative viability rises from 0.793 to 1.01.

First: A-427
Second: NCI-H441
The relative viability of the first is higher: 1.05 for the first, 0.269 for the second.

First: NCI-H661
Second: NCI-H1734
The relative viability of the first is higher: 0.901 for the first, 0.201 for the second.

First: NCI-H460
Second: NCI-H2347
The relative viability of the first is lower: 0.0311 for the first, 0.4 for the second.

Compared with SK-LU-1, NCI-H1395 is higher in relative viability: 0.158 for the first, 0.866 for the second.

Going from 201T to NCI-H1915, the relative viability falls from 1.05 to 0.754.

First: HCC-827
Second: LXF-289
The relative viability of the first is lower: 0.576 for the first, 0.743 for the second.

Going from NCI-H23 to NCI-H647, the relative viability falls from 0.222 to 0.216.

Compared with CAL-12T, NCI-H1651 is higher in relative viability: 0.175 for the first, 0.892 for the second.

Compared with EPLC-272H, NCI-H2228 is lower in relative viability: 0.266 for the first, 0.163 for the second.

Compared with NCI-H1355, NCI-H3122 is lower in relative viability: 0.637 for the first, 0.0833 for the second.

Going from NCI-H1437 to NCI-H1755, the relative viability falls from 1.15 to 0.315.

Compared with NCI-H2023, HCC-15 is lower in relative viability: 0.783 for the first, 0.545 for the second.

First: NCI-H1793
Second: PC-14
The relative viability of the first is higher: 0.182 for the first, 0.154 for the second.

First: EKVX
Second: LC-2-ad
The relative viability of the first is lower: 0.826 for the first, 1.19 for the second.

Compared with NCI-H1944, NCI-H1975 is lower in relative viability: 0.78 for the first, 0.361 for the second.

Going from RERF-LC-KJ to ABC-1, the relative viability falls from 1.27 to 0.866.
